Experimental data from US8912227B1, “Bicyclic pyrrole derivatives useful as agonists of GPR120” (Janssen Pharmaceutica NV, priority 2014, dated 2014).

Columns and labels:
Type in all cases: cell-based
[1] = target: T1, long form of human GPR120 (Homo sapiens, UniProt Q5NUL3); experiment: Human GPR120 DiscoveRx PathHunter β-Arrestin assay, Procedure β-arrestin A; conditions: PathHunter CHO-K1 GPR120 β-Arrestin cell line, 3000 cells per well
T1 construct: host or cells: PathHunter CHO-K1 GPR120 β-Arrestin Cell Line
Description: The binding of an agonist (medium/long chain fatty acids or small molecule agonists) to the G-protein-coupled receptor GPR120 activates phospholipase C, leading to release of intracellular Ca^+2 through the generation of inositol 1,4,5-trisphosphate (InsP3 or IP3). GPR120 activation can also trigger intracellular signaling via recruitment of β-Arrestin. In the present method, agonist-induced activation of the human GPR120 receptor is monitored through the use of PathHunter CHO-K1 GPR120 β-Arrestin Cell Line engineered by DiscoveRx, as detailed below. The cell lines are designed to co-express both the ProLink/Enzyme Donor (PK)-tagged GPCR and the Enzyme […] (EA)-tagged Beta-Arrestin fusion proteins. Upon GPR120 receptor stimulation/activation, the EA-tagged β-Arrestin portion is translocated to the tagged receptor, where the two enzyme fragments are brought within close proximity. Under these conditions, these fragments can interact and form an active Beta-gal enzyme complex through Enzyme Fragment Complementation (EFC). This active Beta-gal complex can enzymatically hydrolyse the substrate to produce a detectable light signal; therefore, activation as a function of agonist concentration can be expressed as an EC50 value to determine relative compound activities. This in vitro assay therefore serves to assess compound agonist activity of the GPR120.
In Procedure β-arrestin A, the cell used were PathHunter CHO-K1 GPR120 β-Arrestin Cell Line, expressing the long form of human GPR120 (Genbank accession number NM_181745), with 3000 cells per well.
The selected CHO-K1 GPR120 β-Arrestin cells were cultured in Ham's F12 media supplemented with 10% fetal bovine serum (FBS), 1% Glutamine, 1×p/s, 800 μg/ml G418 and 300 μg/ml Hygromycin B (for selection). Cell stocks were maintained and grown in a sub-confluent state using standard cell culture procedures. The day before the experiment, the cells were harvested with non-enzymatic cell dissociation buffer and re-suspended in complete growth media at the desired concentration. A Corning 384-plate was then seeded with the proper number of cells in a volume of 25 μL, per well. The seeded plates were incubated overnight at 37° C.
On the day of the experiment, the Assay Buffer containing (a) HBSS with Ca^++ and Mg^++, (b) 20 mM HEPES, and (c) 0.1% BSA stabilizer (pH 7.4) was prepared. The growth medium was gently removed from the cell plates and 20 μL of Assay Buffer added to each well. The plate was then incubated at 37° C. for 60 mins. Test compounds were serially diluted in Assay Buffer to desired concentrations (more particularly, to one or more of the following μM concentrations: 25 μM, 12.5 μM, 6.25 μM, 3.125 μM, 1.562 μM, 0.781 μM, 0.391 μM, 0.195 μM, 0.098 μM, 0.049 μM, 0.024 μM, 0.012 μM). Five μl of compound dilution was then added to each well and the plate incubated at 37° C. for 90 mins. The detection reagents were prepared according to the manufacture's instruction. Twelve μL of the detection reagents were added to each well and the plate incubated at room temperature for 60 mins.
The plates were read on an EnVision instrument, using Protocol name: Luminescence, Plate type: 384 Costar, Measurement height: 3 mm, Measurement time: 1 s, Aperture: 384 Plate aperture. The % activity relative to the positive control was calculated using the following equation:
The % Activity values were plotted versus the concentration of test compound and fitted to a sigmoidal dose-response curve with a Hill slope=1 (fixed value) using nonlinear regression with GraphPad Prism 5.0 to calculate the EC50 values. The Fitting Equation was: Y=Bottom+(Top−Bottom)/(1+10^((LogEC50−X)*HillSlope)), where X is the log of the concentration and Y is the response.

Human GPR120 short form [2] = target: T2, Human GPR120 short form (Homo sapiens, UniProt Q5NUL3); experiment: Human GPR120 calcium flux assay, Procedure Calcium B; conditions: HEK-293 cells expressing human GPR120 short form, 4200 cells/well, FLIPR
T2 construct: expressed in transfected cells
T2 sequence (Q5NUL3 1-361): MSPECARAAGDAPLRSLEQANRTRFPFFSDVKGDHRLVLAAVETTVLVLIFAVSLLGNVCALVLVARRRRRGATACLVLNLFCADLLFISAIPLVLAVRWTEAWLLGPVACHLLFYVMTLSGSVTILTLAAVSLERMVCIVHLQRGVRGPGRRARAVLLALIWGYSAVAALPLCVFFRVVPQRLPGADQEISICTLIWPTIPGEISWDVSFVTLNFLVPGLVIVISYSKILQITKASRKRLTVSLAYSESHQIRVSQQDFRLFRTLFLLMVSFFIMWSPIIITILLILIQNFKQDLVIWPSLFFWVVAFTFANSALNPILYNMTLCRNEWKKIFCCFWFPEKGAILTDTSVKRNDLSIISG
Description: (§1) This in vitro assay serves to assess test compound agonist activity against the short splice variant (SVS with Accession number NM_001195755.1 confirmed by sequencing data) of the GPR120 receptor. The Human Short splice variant #2 (NM_001195755.1) is missing an in-frame coding exon compared to variant 1 (the Human Long splice variant NM_181745.3), resulting in a shorter isoform (GPR120-S) lacking a 16 aa protein segment compared to isoform GPR120-L. The assay platform utilizes HEK-293 cells stably transfected to express the Human GPR120 short form. These cells are first loaded with the Ca^+2 sensitive dye, Fluo-4 NW. Upon stimulation, intracellular released Ca^+2 can bind to the dye and alter its fluorescence intensity. This increase in fluorescence signal, and thus the flux in intracellular [Ca^2+], is detected and quantitated by fluorescence imaging using a FLIPR reader. The effect of the agonist is measured as a function of concentration and used to calculate an EC50 based upon a response curve.
In this procedure 4200 cells/well were employed.
(§2) A Human GPR120 clone (Genbank accession number NM_001195755.1) was placed into the pcDNA3.1 mammalian expression vector carrying the neomycin resistance gene. A stable mammalian cell was generated by placing the above clone into a HEK293 background. Clonal cells responding to long chain fatty acids had expression levels of GPR120 confirmed by RT-qPCR. Human HEK-GPR120 cells were cultured in Dulbecco's Modified Eagle's Medium (DMEM)/F12 medium supplemented with 10% fetal bovine serum (FBS), 1% L-Glutamine and 1% penicillin/streptomycin and 0.5 mg/ml G-418. Cells were split 2 times a week to keep the cells in the log-phase growth.
(§3) In preparation for the assay, HEK cells stably transfected with Human GPR120 (2.5K cells per well in 25 uL growth medium) were seeded into 384-well plates and then incubated overnight (37° C., 5% CO2). The next day, the media was changed to 20 μl assay buffer and the cell starved for 1 h at 37° C. The dye loading solution (2× dye) was prepared using 10 ml assay buffer, 100 μl of 250 mM probenecid, 1 bottle of Component A, and 20 μl of dye in DMSO. Twenty μl of the 2× dye loading buffer was then added to each well. The plates were incubated at 37° C. for 30 min, then at room temperature for an additional 15 minutes, before performing the assay on FLIPR.
(§4) Test compounds were prepared in assay buffer (2 μl of test compound+198 μl assay buffer, final DMSO in assay plate is 0.2%) at the desired concentration, more particularly at 100 μM, 50 μM, 25 μM, 12.5 μM, 6.25 μM, 3.125 μM, 1.562 μM, 0.781 μM, 0.391 μM, 0.195 μM, 0.098 μM, 0.049 μM, 0.024 μM and 0.012 μM.
(§5) The assay was performed on a FLIPR plate reader using the following parameters. Baseline was read for 10 seconds at 1 sec intervals. The program was set to transfer 10 μL of ligand from compound plate to cell plate after baseline reading. Aspiration was executed at: 10 μl/sec speed, 4.6 μl height; Dispensing was executed at: 30 μl/sec speed, 45 μl height. After compound addition, each well was read for 300 sec, with measurements collected at 1 sec intervals.
(§6) The kinetic data from the FLIPR was based upon a 5 minute window for data collection. The fluorescence of each sample well was used for individual calculations of a normalized RFU value, which was defined as maximum response minus the minimum response. The normalized fluorescence reading (RFU) was calculated as follows: RFU=Fmax−Fmin
(§7) The data were fitted to a sigmoidal dose-response curve with a variable Hill slope (<2) using nonlinear regression with GraphPad Prism 5.0 to calculate the EC50 values. The Fitting Equation was: Y=Bottom+(Top−Bottom)/(1+10^((LogEC50−X)*HillSlope)), where X is the log of the concentration and Y is the response.

Human GPR120 short form [3] = target: T2, Human GPR120 short form; experiment: Human GPR120 calcium flux assay, Procedure Calcium A; conditions: HEK-293 cells expressing human GPR120 short form, 2500 cells/well, FLIPR
Description: as §1
In this procedure 2500 cells/well were employed.
as §2, §3, §4, §5, §6, §7

T1 sequence (Q5NUL3 1-377 isoform Q5NUL3-1): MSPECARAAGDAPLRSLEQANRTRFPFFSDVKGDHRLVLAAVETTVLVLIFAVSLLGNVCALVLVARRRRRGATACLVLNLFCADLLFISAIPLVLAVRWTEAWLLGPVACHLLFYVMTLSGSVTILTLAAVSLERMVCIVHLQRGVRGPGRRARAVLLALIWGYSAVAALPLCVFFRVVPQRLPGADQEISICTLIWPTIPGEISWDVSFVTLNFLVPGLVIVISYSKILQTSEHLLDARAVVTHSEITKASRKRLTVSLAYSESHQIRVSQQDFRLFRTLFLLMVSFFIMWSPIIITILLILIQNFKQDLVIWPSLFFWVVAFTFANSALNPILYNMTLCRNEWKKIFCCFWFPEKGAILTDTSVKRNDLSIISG
T1 sequence (P32121 whole entry partner): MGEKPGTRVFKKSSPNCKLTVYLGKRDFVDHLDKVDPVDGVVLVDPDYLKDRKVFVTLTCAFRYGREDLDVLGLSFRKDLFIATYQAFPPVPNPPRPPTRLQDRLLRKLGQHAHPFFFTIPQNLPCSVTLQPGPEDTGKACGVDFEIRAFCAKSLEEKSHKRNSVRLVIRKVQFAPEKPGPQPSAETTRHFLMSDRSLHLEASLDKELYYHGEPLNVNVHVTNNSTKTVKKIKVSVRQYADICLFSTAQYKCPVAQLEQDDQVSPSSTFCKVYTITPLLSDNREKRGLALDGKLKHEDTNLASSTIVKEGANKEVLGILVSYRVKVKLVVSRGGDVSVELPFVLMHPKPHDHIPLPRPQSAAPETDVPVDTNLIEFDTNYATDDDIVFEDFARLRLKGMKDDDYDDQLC

| EC50 [1] | EC50 (Human GPR120 short form [2]) | EC50 (Human GPR120 short form [3]) | SMILES |
| --- | --- | --- | --- |
| 258 nM | 740 nM | 1090 nM | OCCCc1ccc(OCc2c(Cl)ccn2-c2ccc(Cl)cc2)c(F)c1F [Compound 10, 3-(4-{[3-Chloro-1-(4-chlorophenyl)-1H-pyrrol-2-yl]methoxy}-2,3-difluorophenyl)propan-1-ol] |
| 859 nM | 161 nM | 934 nM | O=C(O)CCc1ccc(OCc2c(Cl)ccn2-c2ccc(Cl)cc2)c(F)c1F [Compound 11, 3-(4-{[3-chloro-1-(4-chlorophenyl)-1H-pyrrol-2-yl]methoxy}-2,3-difluorophenyl)propanoic acid] |
| 1100 nM | 88 nM | 993 nM | Cc1c(CCC(=O)O)ccc(OCc2c(C(F)(F)F)ccn2-c2ccc(Cl)cc2)c1C [Compound 15, 3-(4-{[1-(4-Chlorophenyl)-3-(trifluoromethyl)-1H-pyrrol-2-yl]methoxy}-2,3-dimethylphenyl)propanoic acid] |
| 639 nM | 91 nM | 836 nM | O=C(O)CCc1ccc(OCc2c(C(F)(F)F)ccn2-c2ccc(Cl)cc2)c(F)c1F [Compound 16, 3-(4-{[1-(4-Chlorophenyl)-3-(trifluoromethyl)-1H-pyrrol-2-yl]methoxy}-2,3-difluorophenyl)propanoic acid] |
| 238 nM | 533 nM | 1090 nM | Cc1c(CCCO)ccc(OCc2c(C(F)(F)F)ccn2-c2ccc(Cl)cc2)c1C [Compound 17, 3-(4-{[1-(4-Chlorophenyl)-3-(trifluoromethyl)-1H-pyrrol-2-yl]methoxy}-2,3-dimethylphenyl)propan-1-ol] |
| 283 nM | 261 nM | 843 nM | Cc1c(CCCO)ccc(OCc2c(C(F)(F)F)ccn2-c2ccccc2)c1C [Compound 19, 3-(2,3-Dimethyl-4-{[1-phenyl-3-(trifluoromethyl)-1H-pyrrol-2-yl]methoxy}phenyl)propan-1-ol] |
| 87 nM | 282 nM | 709 nM | OCCCc1ccc(OCc2c(C(F)(F)F)ccn2-c2ccc(Br)cc2)c(F)c1F [Compound 21, 3-(4-{[1-(4-Bromophenyl)-3-(trifluoromethyl)-1H-pyrrol-2-yl]methoxy}-2,3-difluorophenyl)propan-1-ol] |
| 308 nM | 227 nM | 931 nM | COc1ccc(-n2ccc(C(F)(F)F)c2COc2ccc(CCC(=O)O)c(C)c2C)cc1 [Compound 24, 3-(4-{[1-(4-Methoxyphenyl)-3-(trifluoromethyl)-1H-pyrrol-2-yl]methoxy}-2,3-dimethylphenyl)propanoic acid] |
| 203 nM | 413 nM | 608 nM | COc1ccc(-n2ccc(C(F)(F)F)c2COc2ccc(CCCO)c(C)c2C)cc1 [Compound 25, 3-(4-{[1-(4-Methoxyphenyl)-3-(trifluoromethyl)-1H-pyrrol-2-yl]methoxy}-2,3-dimethylphenyl)propan-1-ol] |
| 249 nM | 230 nM | 916 nM | COc1ccc(-n2ccc(C(F)(F)F)c2COc2ccc(CCC(=O)O)c(F)c2F)cc1 [Compound 26, 3-(2,3-Difluoro-4-{[1-(4-methoxyphenyl)-3-(trifluoromethyl)-1H-pyrrol-2-yl]methoxy}phenyl)propanoic acid] |
| 46 nM | 54 nM | 218 nM | COc1ccc(-n2ccc(C(F)(F)F)c2COc2ccc(CCCO)c(F)c2F)cc1 [Compound 27, 3-(2,3-Difluoro-4-{[1-(4-methoxyphenyl)-3-(trifluoromethyl)-1H-pyrrol-2-yl]methoxy}phenyl)propan-1-ol] |
| 221 nM | 108 nM | 641 nM | COc1ccc(-n2ccc(C(F)(F)F)c2COc2c(F)cc(CCC(=O)O)cc2F)cc1 [Compound 28, 3-(3,5-Difluoro-4-{[1-(4-methoxyphenyl)-3-(trifluoromethyl)-1H-pyrrol-2-yl]methoxy}phenyl)propanoic acid] |
| 25 nM | 246 nM | 427 nM | OCCCc1cc(F)c(OCc2c(C(F)(F)F)ccn2-c2ccc(Br)cc2)c(F)c1 [Compound 30, 3-(4-[[1-(4-bromophenyl)-3-(trifluoromethyl)-1H-pyrrol-2-yl]methoxy]-3,5-difluorophenyl)propan-1-ol] |
